Measurements published in ChEMBL document CHEMBL6182945, “MMAE-Based Peptide-Drug Conjugates Targeting GPC3 for Precision Chemoradiotherapy in Hepatocellular Carcinoma” (J Med Chem, 2025).
The source made the active and inactive calls. No cut-off for these calls is given here.

How the values were obtained:
Huh-7 [1] = assay: Cell cycle arrest in human Huh-7 cells assessed as accumulation of cells at G0/G1 phase at 50 nM measured after 30 hrs incubation by PI staining based flow cytometry (reference value: 44.20%); assay type: functional
Huh-7 [2] = assay: Induction of DNA damage in human irradiated Huh-7 cells assessed as increase in DNA double break by measuring gamma-H2AX foci formation at 100 nM measured after 24 hrs by immunostaining assay relative to compound alone/irradiation alone; assay type: functional, cell-based
Huh-7 [3] = assay: In vivo antitumor activity against human Huh-7 cells xenografted in female BALB/c mouse assessed as reduction in Ki67 expression in tumor at 2 mg/kg, iv total 4 doses measured on day 17 relative to control; assay type: functional, organism-based; details: time 17.0 day
Hep 3B2 [4] = assay: Cell cycle arrest in human Hep3B cells assessed as accumulation of cells at G2/M phase at 10 nM measured after 24 hrs incubation by PI staining based flow cytometry (reference value: 23%); assay type: functional
LX-2 [5] = assay: Cell cycle arrest in human LX-2 cells assessed as accumulation of cells at G0/G1 phase at 10 nM measured after 24 hrs incubation by PI staining based flow cytometry (reference value: 48.42%); assay type: functional
Huh-7 [6] = assay: In vivo antitumor activity against human Huh-7 cells xenografted in female BALB/c mouse assessed as reduction in tumor volume at 0.5 mg/kg, iv total 4 doses measured on day 17 relative to control; assay type: functional; set-up: scale not given: the % may be the effect or the level left; details: time 17 day
Huh-7 [7] = assay: Cell cycle arrest in human Huh-7 cells assessed as accumulation of cells at G0/G1 phase at 50 nM measured after 24 hrs incubation by PI staining based flow cytometry (reference value: 44.20%); assay type: functional
Huh-7 [8] = assay: Cell cycle arrest in human Huh-7 cells assessed as accumulation of cells at G0/G1 phase at 30 nM measured after 24 hrs incubation by PI staining based flow cytometry (reference value: 47.97%); assay type: functional
LX-2 [9] = assay: Cell cycle arrest in human LX-2 cells assessed as accumulation of cells at G0/G1 phase at 30 nM measured after 24 hrs incubation by PI staining based flow cytometry (reference value: 48.42%); assay type: functional
Huh-7 [10] = assay: In vivo antitumor activity against human Huh-7 cells xenografted in female BALB/c mouse assessed as delay in tumor growth at 1 mg/kg, iv for 2 consecutive days, once a week for 3 weeks measured on day 22; assay type: functional, organism-based; details: time 22.0 day
Hep 3B2 [11] = assay: Cell cycle arrest in human Hep3B cells assessed as accumulation of cells at G0/G1 phase at 30 nM measured after 24 hrs incubation by PI staining based flow cytometry (reference value: 48%); assay type: functional
Huh-7 [12] = assay: Induction of immunogenic cell death (ICD) in human Huh-7 cells assessed as externalization of calreticulin (CALR) on the cell membrane at 100 nM measured after 24 hrs by immunofluorescence assay; assay type: functional, cell-based
LX-2 [13] = assay: Cell cycle arrest in human LX-2 cells assessed as accumulation of cells at G2/M phase at 30 nM measured after 24 hrs incubation by PI staining based flow cytometry (reference value: 14.65%); assay type: functional
LX-2 [14] = assay: Cell cycle arrest in human LX-2 cells assessed as accumulation of cells at G0/G1 phase at 100 nM measured after 24 hrs incubation by PI staining based flow cytometry (reference value: 48.42%); assay type: functional
[15] = target: Serine/threonine-protein kinase Chk2 (Homo sapiens) (UniProt O96017); assay: Induction of CHK2 phosphorylation in human irradiated Huh-7 cells at 100 nM measured after 24 hrs by Western blot analysis; assay type: cell-based
Huh-7 [16] = assay: Cell cycle arrest in human Huh-7 cells assessed as accumulation of cells at phase G2/M at 50 nM measured after 30 hrs incubation by PI staining based flow cytometry (reference value: 18.42%); assay type: functional
LX-2 [17] = assay: Cell cycle arrest in human LX-2 cells assessed as accumulation of cells at S phase at 100 nM measured after 24 hrs incubation by PI staining based flow cytometry (reference value: 36.93%); assay type: functional

Chain of Serine/threonine-protein kinase Chk2 (Homo sapiens) (O96017 whole entry): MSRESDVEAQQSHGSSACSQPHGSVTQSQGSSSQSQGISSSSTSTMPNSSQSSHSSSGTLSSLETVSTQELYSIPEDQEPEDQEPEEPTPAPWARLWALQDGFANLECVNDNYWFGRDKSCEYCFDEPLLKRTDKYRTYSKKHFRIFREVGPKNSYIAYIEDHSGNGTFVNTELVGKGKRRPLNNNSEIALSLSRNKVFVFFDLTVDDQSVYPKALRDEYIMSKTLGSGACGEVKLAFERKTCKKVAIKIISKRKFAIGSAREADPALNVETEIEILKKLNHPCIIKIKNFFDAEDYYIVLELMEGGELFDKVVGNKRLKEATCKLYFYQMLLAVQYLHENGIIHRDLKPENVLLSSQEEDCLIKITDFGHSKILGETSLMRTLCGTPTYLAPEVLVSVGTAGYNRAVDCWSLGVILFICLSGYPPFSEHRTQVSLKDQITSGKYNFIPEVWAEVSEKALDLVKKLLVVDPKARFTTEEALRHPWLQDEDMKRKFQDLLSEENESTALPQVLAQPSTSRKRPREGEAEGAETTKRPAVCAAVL

With CC[C@H](C)[C@@H]([C@@H](CC(=O)N1CCC[C@H]1[C@H](OC)[C@@H](C)C(=O)N[C@H](C)[C@@H](O)c1ccccc1)OC)N(C)C(=O)[C@@H](NC(=O)[C@H](C(C)C)N(C)C(=O)OCc1ccc(NC(=O)[C@H](CCCNC(N)=O)NC(=O)[C@@H](NC(=O)CCCCCN2C(=O)CC(SC[C@H](N)C(=O)N[C@@H](CO)C(=O)N[C@@H](CC(N)=O)C(=O)N[C@@H](CC(=O)O)C(=O)N[C@@H](CCCNC(=N)N)C(=O)N3CCC[C@@H]3C(=O)N3CCC[C@@H]3C(=O)N[C@@H](CC(N)=O)C(=O)N[C@H](C(=O)N[C@@H](CC(C)C)C(=O)N[C@@H](CCC(N)=O)C(=O)N[C@@H](CCCCN)C(=O)N[C@@H](CCCNC(=N)N)C(N)=O)[C@@H](C)CC)C2=O)C(C)C)cc1)C(C)C (some centres not stated) the Activity (Huh-7 [1]) was 31.74%, the Activity (Huh-7 [2]) was “Active” and the Activity (Huh-7 [3]) was “Active”. The Activity (Hep 3B2 [4]) was 39.22%, the Activity (LX-2 [5]) was 48.82% and the Activity (Huh-7 [6]) was 15%. The Activity (Huh-7 [7]) was 28.27%, the Activity (Huh-7 [8]) was 37.22% and the Activity (LX-2 [9]) was 46.22%. For the same compound, the Activity (Huh-7 [10]) was “Active”, the Activity (Hep 3B2 [11]) was 28.5% and the Activity (Huh-7 [12]) was “Active”. For the same compound, the Activity (LX-2 [13]) was 15.25%, the Activity (LX-2 [14]) was 39.1% and the Activity [15] was “Active”. The Activity (Huh-7 [16]) was 54.83% and the Activity (LX-2 [17]) was 37.25%.
